Results reported in patent publication US7524981B2, “Phospholipid derivatives and process for the production there” (NOF Corporation, priority 2003, dated 2009).

Assay: Salt-tolerant effect: clouding point in aqueous sodium sulfate
Type: physicochemical
Settings: 1 mass % solution in 5 mass % aqueous solution of sodium sulfate
Protocol: Clouding point of a 1 mass % solution of tetradecaglycerol succinyl distearoylphosphatidylethanolamine obtained in Example 5, which was dissolved in 5 mass % aqueous solution of sodium sulfate, was measured. As a result of the measurement, clouding point could not be detected even when the temperature was raised to 80° C.
Clouding point was measured for monomethylpolyoxyethylenecarbamyl (molecular weight: 2000) distearoylphosphatidylethanolamine obtained in Comparative Synthesis Example 1 in the same manner as used in Example 9.

| Substance | Clouding point [°C] |
| --- | --- |
| Monomethylpolyoxyethylenecarbamyl (Molecular Weight: 2000) Distearoylphosphatidylethanolamine | 50.0 |
| Tetradecaglycerol Succinyl Distearoylphosphatidylethanolamine [DSPE-PG(40)] | > 80 |
